Here are results for 23 compounds from PubChem BioAssay AID328 (DTP/NCI, 2004).

Structures are written as SMILES. “And” between values parts separate entries of the source, which are not always exact repeats. Equal values may be shown once. Inconclusive results and toxic doses are left out.

The subject of this assay is BDF1 mice, P388 leukemia ip, median survival T/C. Briefly: NCI In Vivo Anticancer Drug Screen. Data for tumor model P388 Leukemia (intraperitoneal) in B6D2F1 (BDF1) mice. The note with it: endpoint: median survival time, higher = longer survival. In short, it runs like this: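 Transplantable tumour in mice; compound vs vehicle dosing; survival scored; ratio of treated to control reported.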

The mark [1] stands for this setting: dose: 50.0 mg/kg/injection, schedule: Q01DX009 (ip), vehicle: Klucel (hydroxypropylcellulose) (HPC).
Setting [2] is: dose: 100.0 mg/kg/injection, schedule: Q01DX009 (ip), vehicle: Klucel (hydroxypropylcellulose) (HPC).
[3] abbreviates: dose: 200.0 mg/kg/injection, schedule: Q01DX009 (ip), vehicle: Klucel (hydroxypropylcellulose) (HPC).
[4] abbreviates: dose: 100.0 mg/kg/injection, schedule: Q01DX009 (ip), vehicle: saline with Tween-80.
The mark [5] stands for this setting: dose: 100.0 mg/kg/injection, schedule: Q04DX003 (ip), vehicle: saline with Tween-80.
The mark [6] stands for this setting: dose: 200.0 mg/kg/injection, schedule: Q01DX009 (ip), vehicle: saline with Tween-80.
[7] abbreviates: dose: 200.0 mg/kg/injection, schedule: Q04DX003 (ip), vehicle: saline with Tween-80.
Setting [8] is: dose: 400.0 mg/kg/injection, schedule: Q01DX009 (ip), vehicle: saline with Tween-80.
[9] abbreviates: dose: 400.0 mg/kg/injection, schedule: Q04DX003 (ip), vehicle: saline with Tween-80.
[10] abbreviates: dose: 100.0 mg/kg/injection, schedule: Q04DX003 (ip), vehicle: saline.
The mark [11] stands for this setting: dose: 200.0 mg/kg/injection, schedule: Q04DX003 (ip), vehicle: saline.
Setting [12] is: dose: 400.0 mg/kg/injection, schedule: Q04DX003 (ip), vehicle: saline.
[13] abbreviates: dose: 25.0 mg/kg/injection, schedule: Q01DX009 (ip), vehicle: saline with Tween-80.
The mark [14] stands for this setting: dose: 50.0 mg/kg/injection, schedule: Q01DX009 (ip), vehicle: saline with Tween-80.
[15] abbreviates: dose: 100.0 mg/kg/injection, schedule: Q01DX009 (ip), vehicle: saline.
The mark [16] stands for this setting: dose: 200.0 mg/kg/injection, schedule: Q01DX009 (ip), vehicle: saline.
Setting [17] is: dose: 25.0 mg/kg/injection, schedule: Q04DX003 (ip), vehicle: saline with Tween-80.
The mark [18] stands for this setting: dose: 50.0 mg/kg/injection, schedule: Q04DX003 (ip), vehicle: saline with Tween-80.
Setting [19] is: dose: 50.0 mg/kg/injection, schedule: Q04DX003 (ip), vehicle: Klucel (hydroxypropylcellulose) (HPC).
Setting [20] is: dose: 100.0 mg/kg/injection, schedule: Q04DX003 (ip), vehicle: Klucel (hydroxypropylcellulose) (HPC).
Where [21] appears, read: dose: 200.0 mg/kg/injection, schedule: Q04DX003 (ip), vehicle: Klucel (hydroxypropylcellulose) (HPC).
Setting [22] is: dose: 400.0 mg/kg/injection, schedule: Q01DX009 (ip), vehicle: Klucel (hydroxypropylcellulose) (HPC).
[23] abbreviates: dose: 400.0 mg/kg/injection, schedule: Q04DX003 (ip), vehicle: Klucel (hydroxypropylcellulose) (HPC).

For `O=C1OC(=C(c2ccccc2)c2ccccc2)c2ccccc21`, the T/C by setting is: under setting [1], 100 % of control; under setting [2], 100 % of control; under setting [3], 100 % of control.
As for `COc1cccc2c1C(=O)c1c(O)c3c(c(O)c1C2=O)CC(O)(/C(C)=N/NC(=O)CCC(=O)N/N=C(\C)C1(O)Cc2c(O)c4c(c(O)c2C(OC2CC(N)C(O)C(C)O2)C1)C(=O)c1c(OC)cccc1C4=O)CC3OC1CC(N)C(O)C(C)O1` (stereo not drawn), the T/C is 158 % of control (dose: 14.4 mg/kg/injection, schedule: Q04DX003 (ip), vehicle: water) and 109 % of control (dose: 40.0 mg/kg/injection, schedule: Q04DX003 (ip), vehicle: water).
On to `C[C@@H]1CC2=CC(=O)CC[C@]2(C)[C@H]2CC[C@]3(C)[C@@H](O)CC[C@H]3[C@H]12`, for which the T/C by setting is: under setting [4], 100 % of control; under setting [5], 100 % of control; under setting [6], 95 % of control; under setting [7], 109 % of control; under setting [8], 90 % of control; under setting [9], 95 % of control.
Take `NNC(=O)CCCCCC(=O)NN`: the T/C is 100 % of control (dose: 100.0 mg/kg/injection, schedule: Q01DX001 (ip), vehicle: saline); 110 % of control (dose: 100.0 mg/kg/injection, schedule: Q01DX009 (ip), vehicle: alcohol); 95 % of control under setting [10]; 100 % of control (dose: 200.0 mg/kg/injection, schedule: Q01DX001 (ip), vehicle: saline); 95 % of control (dose: 200.0 mg/kg/injection, schedule: Q01DX009 (ip), vehicle: alcohol); 113 % of control under setting [11]. In addition, the T/C is, setting by setting: (dose: 400.0 mg/kg/injection, schedule: Q01DX001 (ip), vehicle: saline) 100 % of control; (dose: 400.0 mg/kg/injection, schedule: Q01DX009 (ip), vehicle: alcohol) 90 % of control; under setting [12], 90 % of control.
For the compound `OC1CCCC2CCCNC12` (stereo not drawn) (tested in a mixture with another compound), the T/C reads like this: under setting [13], 88 % of control; under setting [14], 103 % of control; under setting [4], 100 % of control.
Take `COc1cc(O)c(C(=O)c2ccccc2)cc1S(=O)(=O)O`: the T/C was 110 % of control under setting [15]; 109 % of control under setting [10]; 110 % of control under setting [16]; 100 % of control under setting [11]; 110 % of control (dose: 400.0 mg/kg/injection, schedule: Q01DX009 (ip), vehicle: saline); 100 % of control under setting [12].
Take `OCCN(CCO)C(CO)(CO)CO`: the T/C by setting is: (dose: 50.0 mg/kg/injection, schedule: Q01DX005 (ip), vehicle: saline) 100 % of control; (dose: 100.0 mg/kg/injection, schedule: Q01DX005 (ip), vehicle: saline) 98 % of control; (dose: 200.0 mg/kg/injection, schedule: Q01DX005 (ip), vehicle: saline) 104 % of control.
With `CCC/C(=N\Nc1ccc([N+](=O)[O-])cc1[N+](=O)[O-])c1ccccc1`, the T/C is, setting by setting: under setting [17], 90 % of control; under setting [18], 100 % of control; under setting [5], 109 % of control.
For the compound `C[C@@H]1CN(C(=O)CCOS(C)(=O)=O)[C@@H](C)CN1C(=O)CCOS(C)(=O)=O`, the T/C is, setting by setting: under setting [18], 166 % of control; under setting [4], 272 % of control; under setting [5], 208 % of control; under setting [6], 104 % of control; under setting [7], 172 % of control; (dose: 264.0 mg/kg/injection, schedule: Q04DX003 (ip), vehicle: saline with Tween-80) 233 % of control. Besides, the T/C under setting [9] is 250 % of control and 272 % of control.
Turning to `CCOC(=O)c1cc(CC)sc1N`, the T/C under setting [5] is 95 % of control, the T/C under setting [7] was 108 % of control and the T/C under setting [9] was 108 % of control.
Consider `O=C(O)c1ccccc1O.O=C(O)c1ccccc1O.[O]=[V]`, for which the T/C is 90 % of control (dose: 8.0 mg/kg/injection, schedule: Q01DX010 (ip), vehicle: carboxymethylcellulose (CMC)) and 100 % of control (dose: 16.0 mg/kg/injection, schedule: Q01DX010 (ip), vehicle: carboxymethylcellulose (CMC)).
In the case of `Cc1cc(N(CCCl)CCCl)ccc1C=Nc1cccnc1`, the T/C is, setting by setting: under setting [1], 100 % of control and 113 % of control; under setting [19], 100 % of control; under setting [2], 152 % of control; under setting [20], 95 % of control; under setting [3], 150 % of control and 156 % of control; under setting [21], 120 % of control. Besides, the T/C reads like this: under setting [22], 169 % of control and 190 % of control; under setting [23], 120 % of control.
Turning to `CC(=O)OC1C(OCc2ccccc2)OC(COCc2ccccc2)C(OC2OC(COCc3ccccc3)C(OCc3ccccc3)C(OCc3ccccc3)C2OCc2ccccc2)C1OCc1ccccc1` (stereo not drawn), the T/C was 100 % of control and 104 % of control (dose: 5.31 mg/kg/injection, schedule: Q01DX009 (ip), vehicle: Klucel (hydroxypropylcellulose) (HPC)); 100 % of control (dose: 10.62 mg/kg/injection, schedule: Q01DX009 (ip), vehicle: Klucel (hydroxypropylcellulose) (HPC)); 87 % of control and 100 % of control (dose: 21.25 mg/kg/injection, schedule: Q01DX009 (ip), vehicle: Klucel (hydroxypropylcellulose) (HPC)).
With `CCCCNC(C)(C)C(SSSC(C)=O)c1ccco1` (stereo not drawn), the T/C runs as follows: (dose: 3.12 mg/kg/injection, schedule: Q01DX009 (ip), vehicle: saline with Tween-80) 88 % of control; (dose: 6.25 mg/kg/injection, schedule: Q01DX009 (ip), vehicle: saline with Tween-80) 111 % of control; (dose: 12.5 mg/kg/injection, schedule: Q01DX009 (ip), vehicle: saline with Tween-80) 102 % of control; under setting [13], 101 % of control and 102 % of control; under setting [14], 103 % of control.
Turning to `CC1(O)c2cccc3c2C2(O)c4c1cccc4C(C)(O)c1cccc(c12)C3(C)O` (stereo not drawn), the T/C by setting is: under setting [19], 100 % of control; under setting [20], 105 % of control; under setting [21], 105 % of control.
In the case of `C[C@]12CC[C@@H]3c4ccc(O)cc4CC[C@H]3[C@@H]1CC[C@@H]2O`, the T/C runs as follows: under setting [2], 90 % of control; under setting [20], 100 % of control; under setting [21], 100 % of control; under setting [22], 95 % of control; under setting [23], 115 % of control.
With `CCOC(=O)CCc1nn(C)c2ccc(CC)cc2c1=O`, the T/C was 101 % of control under setting [14], 92 % of control under setting [4] and 90 % of control under setting [6].
For the compound `CCN1C[C@]2(COC)[C@H](O)C[C@H](OC)[C@]34C1[C@H]([C@H](OC)[C@H]23)[C@]1(OC(C)=O)[C@H]2[C@@H](OC(=O)c3ccccc3)[C@](O)(C[C@H]24)[C@@H](OC)[C@@H]1O`, the T/C was 93 % of control (dose: 0.13 mg/kg/injection, schedule: Q01DX009 (ip), vehicle: Klucel (hydroxypropylcellulose) (HPC)) and 91 % of control (dose: 0.25 mg/kg/injection, schedule: Q01DX009 (ip), vehicle: Klucel (hydroxypropylcellulose) (HPC)).
As to `CC1=NN(c2ccccc2)C(=O)/C1=C\c1ccc(N(CCC#N)CCC#N)cc1`, the T/C is 87 % of control under setting [1], 93 % of control under setting [2], 87 % of control under setting [3] and 91 % of control under setting [22].
Regarding `CCSC(=O)CC`, the T/C by setting is: under setting [14], 95 % of control; under setting [4], 105 % of control; under setting [5], 104 % of control; under setting [6], 100 % of control; under setting [7], 104 % of control; under setting [9], 100 % of control.
`Nc1ccc(CCc2ccc(Cl)cc2S(=O)(=O)F)c(Cl)c1`: the T/C under setting [15] was 95 % of control and the T/C under setting [16] is 91 % of control.
Regarding `C(=Nc1ccccc1)c1ccc(-c2ccccc2)cc1`, the T/C by setting is: under setting [4], 115 % of control; under setting [5], 104 % of control; under setting [6], 100 % of control; under setting [7], 104 % of control; under setting [8], 115 % of control; under setting [9], 109 % of control.
Turning to `C=CCC1CCSC1=O` (stereo not drawn), the T/C was 100 % of control and 115 % of control under setting [17]; 103 % of control and 106 % of control under setting [18]; 101 % of control and 103 % of control and 119 % of control under setting [5]; 108 % of control under setting [7].
